Reference: ChEMBL document CHEMBL4265868, “N-alkanol-N-cyclohexanol amine aryl esters: Multidrug resistance (MDR) reversing agents with high potency and efficacy” (Eur J Med Chem, 2017)
Activity calls are given as the source filed them. The rule behind the calls is not given here.

Experiments:
[1] = Half life in human plasma by LC-MS/MS method; format: ADME, cell-free
[2] = species on record: Homo sapiens
Description: Inhibition of P-gp in human K562/DOX cells assessed as drug level causing 50% increase in nuclear pirarubicin concentration incubated for 30 mins by spectroflurometry

[3] = Stability in PBS buffer assessed as drug degradation incubated for 30 to 120 mins by LC-MS/MS method; format: physicochemical; details: read-out: Drug degradation
[4] = Stability in presence of bovine serum and human K562/DOX cells assessed as drug degradation incubated for 30 to 120 mins by LC-MS/MS method; format: ADME; details: K562/DOX cells with bovine serum, read-out: Drug degradation
[5] = species on record: Homo sapiens; assay: Inhibition of P-gp in human K562/DOX cells assessed as potentiation of doxorubicin-induced cytotoxicity by measuring reduction in doxorubicin IC50 at 1 uM incubated for 72 hrs by MTT assay relative to control; format: cell-based
[6] = test system: K562; assay: Effect on rhodamine-123 efflux in human K562 cells at 1 uM incubated for 10 mins hrs by flow cytometry; format: ADME, cell-based; details: k562, 10 min
[7] = test system: K562; assay: Toxicity in human K562 cells assessed as reduction in cell viability at 0.1 to 3 uM incubated for 72 hrs by MTT assay; format: cell-based; details: k562, 72 h
[8] = test system: K562; assay: Inhibition of P-gp in human K562/DOX cells assessed as increase in rhodamine-123 […] in human K562 cells at 1 uM incubated for 10 mins hrs by flow cytometry relative to untreated control; format: cell-based
[9] = species on record: Homo sapiens; assay: Inhibition of P-gp in human K562/DOX cells assessed as potentiation of doxorubicin-induced cytotoxicity by measuring reduction in doxorubicin IC50 at 3 uM incubated for 72 hrs by MTT assay relative to control; format: cell-based
[10] = Toxicity in human K562/Dox cells assessed as reduction in cell viability at 0.1 to 3 uM incubated for 72 hrs by MTT assay; format: cell-based
[11] = test system: K562; assay: Potentiation of doxorubicin-induced cytotoxicity in human K562 cells assessed as reduction in cell viability at 0.1 to 3 uM incubated for 72 hrs by MTT assay; format: cell-based; details: k562, 72 h
[12] = species on record: Homo sapiens; assay: Inhibition of P-gp in human K562/DOX cells assessed as potentiation of doxorubicin-induced cytotoxicity by measuring reduction in doxorubicin IC50 at 0.1 uM incubated for 72 hrs by MTT assay relative to control; format: cell-based
[13] = Stability in human plasma assessed as parent compound remaining incubated for 120 mins by LC-MS/MS method; format: ADME, cell-free; details: read-out: Stability

Row | Structure (SMILES) | half-life [1] | I0.5 [2] | degraded [3] | metabolised [4] | Ratio IC50 [5] | Activity [6] | Activity [7] | fold change (FC) [8] | Ratio IC50 [9] | Activity [10] | Activity [11] | Ratio IC50 [12] | remaining at 2 h [13] | inhibition [8]
1 | COc1cc(/C=C/C(=O)O[C@H]2CC[C@H](N(C)CCCOC(=O)c3cc(OC)c(OC)c(OC)c3)CC2)cc(OC)c1OC | ≤ 1 h | 0.07 µM | < 5% | < 5% |  |  |  |  |  |  |  |  |  | 
2 | COc1cc(/C=C/C(=O)OCCCCCN(C)[C@H]2CC[C@@H](OC(=O)c3cc(OC)c(OC)c(OC)c3)CC2)cc(OC)c1OC | ≥ 4 h | 0.51 µM | < 5% | < 5% |  |  |  |  |  |  |  |  |  | 
3 | COc1cc(/C=C/C(=O)O[C@H]2CC[C@@H](N(C)CCCOC(=O)c3cc(OC)c(OC)c(OC)c3)CC2)cc(OC)c1OC | ≥ 4 h | 0.47 µM | < 5% | < 5% |  |  |  |  |  |  |  |  |  | 
4 | COc1cc(/C=C/C(=O)OCCCN(C)[C@H]2CC[C@H](OC(=O)c3cc(OC)c(OC)c(OC)c3)CC2)cc(OC)c1OC | ≤ 2 h | 0.08 µM | < 5% | < 5% |  |  |  |  |  |  |  |  |  | 
5 | COc1cc(/C=C/C(=O)O[C@H]2CC[C@H](N(C)CCCCOC(=O)c3cc(OC)c(OC)c(OC)c3)CC2)cc(OC)c1OC | ≤ 2 h | 0.06 µM | < 5% | < 5% | 12.9 | Non-Toxic | Non-Toxic | 60 | 50 | Non-Toxic | Non-Toxic | 3.3 |  | 
6 | COc1cc(/C=C/C(=O)O[C@H]2CC[C@@H](N(C)CCCCCOC(=O)c3cc(OC)c(OC)c(OC)c3)CC2)cc(OC)c1OC | ≥ 4 h | 0.09 µM | < 5% | < 5% | 5.5 | Non-Toxic | Non-Toxic | 10 to 80 | 14.7 | Non-Toxic | Non-Toxic | 1.6 |  | 
7 | COc1cc(/C=C/C(=O)OCCCCN(C)[C@H]2CC[C@H](OC(=O)c3cc(OC)c(OC)c(OC)c3)CC2)cc(OC)c1OC | 2 to 4 h | 0.08 µM | < 5% | < 5% |  |  |  |  |  |  |  |  | 50% | 
8 | COc1cc(/C=C/C(=O)O[C@H]2CC[C@@H](N(C)CCCCOC(=O)c3cc(OC)c(OC)c(OC)c3)CC2)cc(OC)c1OC | ≥ 4 h | 0.29 µM | < 5% | < 5% | 4.6 | Non-Toxic | Non-Toxic | 10 to 80 | 34.9 | Non-Toxic | Non-Toxic | 2.8 |  | 
9 | COc1cc2c(cc1OC)CN(CCc1ccc(NC(=O)c3cc(OC)c(OC)cc3NC(=O)c3cnc4ccccc4c3)cc1)CC2 |  |  |  |  | 29.7 |  |  |  |  |  |  |  |  | Active
10 | COc1cc(/C=C/C(=O)OCCCN(C)[C@H]2CC[C@@H](OC(=O)c3cc(OC)c(OC)c(OC)c3)CC2)cc(OC)c1OC | 2 to 4 h | 0.25 µM | < 5% | < 5% |  |  |  |  |  |  |  |  | 75% | 
11 | COc1cc(/C=C/C(=O)OCCCCCN(C)[C@H]2CC[C@H](OC(=O)c3cc(OC)c(OC)c(OC)c3)CC2)cc(OC)c1OC | ≥ 4 h | 0.1 µM | < 5% | < 5% |  |  |  |  |  |  |  |  |  | 
12 | CCOC(=O)C(C)c1cccc(C(=O)c2ccccc2)c1 (stereo not given) | < 2 h |  |  |  |  |  |  |  |  |  |  |  |  | 
13 | COc1cc(/C=C/C(=O)OCCCCN(C)[C@H]2CC[C@@H](OC(=O)c3cc(OC)c(OC)c(OC)c3)CC2)cc(OC)c1OC | ≥ 4 h | 0.35 µM | < 5% | < 5% |  |  |  |  |  |  |  |  |  | 
14 | COc1cc(/C=C/C(=O)O[C@H]2CC[C@H](N(C)CCCCCOC(=O)c3cc(OC)c(OC)c(OC)c3)CC2)cc(OC)c1OC | ≥ 4 h | 0.13 µM | < 5% | < 5% | 32.8 | Non-Toxic | Non-Toxic | 80 | 57.9 | Non-Toxic | Non-Toxic | 2.3 |  | 
